Like-named read-outs stand apart in the source and are kept apart here.
How the values were obtained:
[1] = system: anti-miR-21 oligo(2′-O-methylribonucleotide); assay: DLS of dendriplexes with anti-miR-21 oligonucleotide; format: physicochemical; conditions: for mean diameter of dendriplex: 0.9% NaCl
Protocol: Dendriplexes were characterized by DLS using Zetasizer Nano-S (Malvern Panalytical, UK) equipped with a 632.8 nm laser, applying detection angle 173°. Mean diameters from the intensity-weighted size distribution are given. Average results from three consecutive sets of measurements generated by Malvern Zetasizer Software version 7.13 are presented.
Amphiphilic dendrons (1.5–73 μM) were mixed with the anti-miR-21:5′-m([…]) (500 nM) in 0.9% NaCl solution in milli-Q water. The dendrons’ concentrations were chosen to attain the charge ratio (CR, the ratio of cations over anions in the sample) of 1.2, 2.5, 5, 10, or 20. The samples were incubated for 15 min at rt prior to measurements.

[2] = system: E. coli—clinical isolate A1235; assay: Microdilution broth MIC; format: cell-based; conditions: Escherichia coli, 24 h
Protocol: (§1) In vitro antibacterial activity of the prepared amp-DDNs (DnP6-1C12, DnP3-1C12, DnP3-2C12, and DnP3-2C18) was tested on a panel of four G+ (Staphylococcus aureus CCM 4516, methicillin-resistant S. aureus clinical isolate C1923, Staphylococcus epidermidis clinical isolate C1936, and vancomycin-resistant Enterococcus faecium clinical isolate S2484) and four G-bacterial strains (Escherichia coli K12, CCM 7929, E. coli clinical isolate A1235, extended-spectrum β-lactamase-producing (ESBL+) Klebsiella pneumoniae clinical isolate C1914, and multiresistant Pseudomonas aeruginosa clinical isolate A1245). CCM collection strains were obtained from the Czech Collection of Microorganisms. All clinical isolates were obtained during routine procedures in the clinical laboratory at the University Hospital Hradec Králové. All strains were stored at −70 °C in the Cryobank according to the manufacturer’s instructions. Subsequently, when needed, each bacterial strain was inoculated and cultivated on Mueller–Hinton agar (HiMedia, Cadersky-Envitek, Prague, Czech Republic).
(§2) The antibacterial susceptibility was determined by a microdilution broth method according to standard M07-A10,[55] and the optimized protocol has been published previously.[56],[57] Briefly, Mueller–Hinton broth (MHB) adjusted to pH 7.4 (±0.2) was used as the test medium. […] The wells of the microdilution tray contained 200 μL of the MHB with 2-fold serial dilutions of the compounds and were inoculated with 10 μL of the bacterial suspension. The bacterial suspensions were controlled densitometrically to reach 1.5 × 10^8 viable CFU per 1 mL. The minimum inhibitory concentration (MIC) values, defined as 95% inhibition of bacterial growth, were determined after 24 h of incubation at 35 °C ± 1 °C.

[3] = system: E. faecium VRE—clinical isolate S2484; assay: Microdilution broth MIC; format: cell-based; conditions: Enterococcus faecium, 24 h
Protocol: as §1, §2

[4] = system: K. pneumoniae ESBL+—clinical isolate C1914; assay: Microdilution broth MIC; format: cell-based; conditions: Klebsiella pneumoniae, 24 h
Protocol: as §1, §2

[5] = system: P. aeruginosa MR—clinical isolate A1245; assay: Microdilution broth MIC; format: cell-based; conditions: Pseudomonas aeruginosa, 24 h
Protocol: as §1, §2

[6] = system: S. aureus CCM 4516; assay: Microdilution broth MIC; format: cell-based; conditions: Staphylococcus aureus
Protocol: as §1, §2

[7] = system: E. coli K12, CCM 7929; assay: Microdilution broth MIC; format: cell-based; conditions: Escherichia coli
Protocol: as §1, §2

[8] = system: S. epidermidis—clinical isolate C1936; assay: Microdilution broth MIC; format: cell-based; conditions: Staphylococcus epidermidis, 24 h
Protocol: as §1, §2

[9] = system: S. aureus MRSA—clinical isolate C1926; assay: Microdilution broth MIC; format: cell-based; conditions: Staphylococcus aureus, 24 h
[10] = Dynamic light scattering (DLS/MADLS) of micelles in physiological solution; format: physicochemical
Protocol: The size of micelles and micellar aggregates was estimated by the dynamic light scattering (DLS) method using NanoBrook OMNI ZetaPALS (Brookhaven Instruments, USA) with a detection angle 90° and 640 nm laser. The presented diameters are mean values from the intensity-weighted size distribution. The composition of the samples was as follows: dendron (1.0 mM) and NaCl (0.9%) in deionized water. The solutions were sonicated for 30 min, filtered through 0.45 μm Nylon syringe filters (Avantor, USA), placed in standard polystyrene cuvettes (BI-SCP, Brookhaven Instruments), and stored at 4 °C. All measurements were conducted at 25 °C. Measurement time was set to 5 min, and each measurement was repeated 5 times. The analysis of data was performed using Brookhaven Instruments software Particle Solutions v3.6.07136.
MADLS and size dependence on concentration and pH were measured on Zetasizer Ultra Red (Malvern Panalytical, UK) equipped with a 632.8 nm laser, applying detection angles 12.78°, 90°, and 174.7° in the case of MADLS measurements and 12.78° for size dependence measurements. MADLS and concentration dependence were measured in DTS0012 polystyrene cuvettes (Malvern Panalytical, UK); pH dependence was studied by acidobasic titration in DTS1070 folded capillary Zeta cell, using MPT-3 Multipurpose Titrator and DEG0003 Auto Degasser (all Malvern Panalytical, UK). The concentration dependence measurement started at 1.0 mM and the samples were diluted 2-fold until the minimum concentration 0.06 mM. For each concentration, the measurement was repeated 3 times giving 15 measurements in total. The pH dependence measurement started at pH 12; the titration was performed with a step of 2 and at each step, the measurement was repeated 3 times, giving 18 measurements in total. Malvern Panalytical software ZS Xplorer version 3.3.1.5 was used for the analysis of data.

[11] = 95% inhibition of growth, read-out: MIC
[12] = CCM4516, 24 h, 95% inhibition of growth, read-out: MIC
[13] = CCM7929, 24 h, 95% inhibition of growth, read-out: MIC

Row | SMILES | PI of dendriplex ([1]; CR 1.2) | mean diameter of dendriplex ([1]; CR 1.2, anti-miR-21 500 nM) | PI of dendriplex ([1]; CR 2.5) | mean diameter of dendriplex ([1]; CR 2.5, anti-miR-21 500 nM) | PI of dendriplex ([1]; CR 5) | mean diameter of dendriplex ([1]; CR 5, anti-miR-21 500 nM) | PI of dendriplex ([1]; CR 10) | mean diameter of dendriplex ([1]; CR 10, anti-miR-21 500 nM) | MIC [2, 11] | MIC [3] | MIC [4] | MIC [5] | MIC [6, 12] | MIC [7, 13] | MIC [8, 11] | MIC [9] | further results
1 | CCCCCCCCCCCCNC(=O)c1ccc(OCCC[Si](CCCSCC(=O)NCCC[P+](c2ccccc2)(c2ccccc2)c2ccccc2)(CCCSCC(=O)NCCC[P+](c2ccccc2)(c2ccccc2)c2ccccc2)CCCSCC(=O)NCCC[P+](c2ccccc2)(c2ccccc2)c2ccccc2)cc1 [DnP3-1C12] | 0.07 | 0.14 μm | 0.2 | 0.9 μm | 0.3 | > 1 μm | 0.1 | > 1 μm | 12.5 µM | 1.15 µM | > 12.5 µM | > 12.5 µM | 3.13 µM | 6.25 µM | 1.56 µM | 3.13 µM | –
2 | CCCCCCCCCCCCCCCCCCNC(=O)c1ccc(OCCC[Si](CCCSCC(=O)NCCC[P+](c2ccccc2)(c2ccccc2)c2ccccc2)(CCCSCC(=O)NCCC[P+](c2ccccc2)(c2ccccc2)c2ccccc2)CCCSCC(=O)NCCC[P+](c2ccccc2)(c2ccccc2)c2ccccc2)cc1 [DnP3-1C18] | 0.14 | 0.23 μm | 0.2 | 0.5 μm | 0.4 | > 1 μm | 0.3 | > 1 μm | > 6.25 µM | 6.25 µM | > 6.25 µM | > 6.25 µM | 6.25 µM | > 6.25 µM | 3.13 µM | 6.25 µM | –
3 | CCCCCCCCCCCCNC(=O)c1cc(OCCC[Si](CCCSCC(=O)NCCC[P+](c2ccccc2)(c2ccccc2)c2ccccc2)(CCCSCC(=O)NCCC[P+](c2ccccc2)(c2ccccc2)c2ccccc2)CCCSCC(=O)NCCC[P+](c2ccccc2)(c2ccccc2)c2ccccc2)cc(C(=O)NCCCCCCCCCCCC)c1 [DnP3-2C12] | 0.11 | 0.13 μm | 0.2 | 0.8 μm | 0.3 | 1.0 μm | 0.14 | 0.18 μm | – | > 12.5 µM | > 12.5 µM | > 12.5 µM | – | – | – | > 12.5 µM | PDI ([10]; 1.0 mM dendron, 0.9% NaCl): ≈ 0.2; mean size (DLS, intensity-weighted) ([10]; 1.0 mM dendron, 0.9% NaCl, 25 °C, start of testing period): 21 nm; mean size (DLS, intensity-weighted) ([10]; 1.0 mM dendron, 0.9% NaCl, after 75 day testing period, stored at 4 °C): 25 nm; mean size of the second population (MADLS) ([10]; aggregates): 37 nm; mean diameter of the smaller particles (MADLS) ([10]; isolated micelles): 10.0 nm; PI of dendriplex ([1]; CR 20): 0.17; mean diameter of dendriplex ([1]; CR 20, anti-miR-21 500 nM): 0.14 μm; MIC [2]: > 12.5 µM; MIC ([6]; CCM4516, 24 h): > 12.5 µM; MIC ([7]; CCM7929, 24 h): > 12.5 µM; MIC [8]: > 12.5 µM
